Laboratory results published in patent US20040167226A1, “Methods for the treatment of pain and traumatic injury using benzamides and compositions containing the same” (priority 2002, published 2004).
Entries after “also recorded” stand apart in the source; their conditions may differ.

Test system: Taxol-induced mechanical allodynia
Assay: Taxol-induced neuropathic pain mouse model, von Frey filament paw withdrawal
Type: in vivo, C57B16 mice
Details: mice
Experimental: C57B16 male mice were preconditioned (trained) in the enclosure one hour per day in the morning for one week prior to the baseline measurement. The baseline response to the mechanical stimulus was measured using a von Frey filament with 0.6 gram of force (von Frey number 3.84). Briefly, the von Frey filament, was applied to the plantar area of the right hind paw of mouse. The frequency of paw withdrawal was calculated in terms of percentage response, where the higher percentage indicates more pain, whereas the lower the percentage indicates less pain. Based on past experience with the C57B16 strain of adult male mice, animals with baseline no greater than 40% of response were included in further studies, while those with greater than 40% of paw withdrawal response to this particular force of stimulus, known as spontaneous mechanical allodynia, were discarded from these studies. The paw withdrawal behavior includes, licking the stimulated paw, vigorously shaking the paw and active avoidance upon application of innocuous mechanical stimuli. For those mice without spontaneous mechanical allodynia, Taxol was administered to the mice daily, 5 days a week, for longer than a one week period. Generally, mice treated with daily i.p. administration of 1 mg/kg (body weight) of Taxol develop relatively stable mechanical allodynia, neuropathic pain, on day 9 and thereafter. Prior to compound A administration, the responses of mice to 0.6 gram of von Frey filament were measured for two consecutive days in the morning. Only those mice with paw withdrawal response to this particular von Frey filament stimulus no less than 60%, counted as mechanical allodynia, were included for later testing with the compounds of interest.
Five-week old, male C57B1/6 mice were purchased from Charles River and housed at the Renovis animal facility in South San Francisco. Mice were trained for one week in an enclosure made of Plexiglas with dimensions of 2 in×2.5 in×3.5 in (W, H, and L) with a meshed metal support. The baseline of response to mechanical stimulus was measured using a von Frey Filament (0.6 g=3.84 mN). Normally, the baseline response is between 0 to 40%.
Taxol was dissolved (1 mg/ml) in 50% Cremophor EL and 50% alcohol, and freshly diluted with saline to the final concentration of 0.2 mg/ml in 10% Cremophor EL, 10% alcohol. Mice were administered Taxol at 1 mg/kg of body weight, via ip daily, while the animals of the control group received vehicle (10% Cremophor EL and 10% alcohol in saline).
Five-week old C57B1/6 male mice were trained for one week in the von Frey filament test, and baseline response (percent paw withdrawal over 40 tests) to a von Frey filament (0.6 gram=3.84 mN) was measured (average shown in the graph as “baseline (mean)”=31%).
Trained mice were treated with 1 mg/kg (body weight) taxol in 10% Cremophor EL/10% ethanol via ip injection daily through the end of the experiment in order to induce the neuropathic pain state.
The percent pain response (percent paw withdrawal over 40 tests) with a von Frey filament (0.6 gram=3.84 mN) was measured at day 8 and day 9 after pain induction (average of these two shown in the graph as “pre-dosing (mean)”=75%). Those animals with either sensitive baseline (>40% response) or without pain (<60% response) after 9 days of taxol injection were not included in the data analysis. Animals receiving this daily dose of Taxol will develop neuropathic pain.
[…] The animals were then placed in the enclosure for assay. Mechanical allodynia was measured with von Frey filament (0.6 g=3.84 mN) at various times after administration.
Nine taxol-treated animals received […] vehicle (75% polyethylene glycol (PEG)) via ip injection; 8 taxol-treated animals were injected ip with a suspension of Compound A in vehicle at dose of 50 mg/kg (body weight). […]

For `CC(=O)Nc1ccc(C(=O)NC(C)(C)C)cc1` [Compound A, N-tert-butyl-4-acetamidobenzamide], the “mechanical allodynia under chronic dosing vs vehicle control” value (5 mg/kg/per day and 10 mg/kg/per day i.p., one dose per day, Cremophor EL/ETOH/saline) was “less mechanical allodynia”, the “percentage response to 0.6 gram von Frey filament” value (“percentage response” for short) (10 mg/kg i.p. in Cremophor EL/ETOH/saline, 3-hour postdosing, +/-SEM) was 40+/−10.9% and the “percentage response” value (10 mg/kg i.p. in Cremophor EL/ETOH/saline, 6-hour postdosing, +/-SEM) was 42+/−95%. For the same compound, the “pain under chronic dosing” value (10 mg/kg/per day i.p., Cremophor EL/ETOH/saline) was “much less pain”, the “percentage response” value (20 mg/kg i.p. in Cremophor EL/ETOH/saline, 3-hours postdosing, not statistically significant (p 0.08)) was 59+/−8.1% and the “analgesic effect on Taxol-induced pain (in words)” value (50 mg/kg i.p. single dose in 75% PEG-200, 50 mg/kg) was “has activity preventing Taxol-induced pain; also recorded: strong analgesic effect”. The “percentage of paw withdraw response to 0.6 gram von Frey filament” value (“percentage of paw withdraw response” below) (50 mg/kg i.p. single dose in 75% PEG-200, 1-hour postdosing, +/-SEM) was 20+/−7.6%, the “percentage of paw withdraw response” value (50 mg/kg i.p. single dose in 75% PEG-200, 2-hour postdosing (so in the source), +/-SEM) was 32.5+/−13.1% and the “percentage of paw withdraw response” value (50 mg/kg i.p. single dose in 75% PEG-200, 24-hour postdosing, +/-SEM) was 50+/−9.3%. For the same compound, the “percentage of paw withdraw response” value (50 mg/kg i.p. single dose in 75% PEG-200, 48-hour postdosing, +/-SEM) was 65+/−6.3%, the “time of peak analgesic efficacy post dosing” value (5 and 10 mg/kg i.p. in Cremophor EL/ETOH/saline) was 3 h and the “drug tolerance or drug accumulation under chronic dosing” value (5 and 10 mg/kg/per day i.p. chronic dosing) was “no significant drug tolerance or drug accumulation effects”.
